Legend:
[1] = Binding affinity to wild type Angiococcus disciformis PKS/NRPS expressed in Escherichia coli BL21 (DE3) by isothermal titration calorimetry
[2] = Binding affinity to wild type Angiococcus disciformis PKS/NRPS expressed in Escherichia coli BL21 (DE3) by surface plasmon resonance assay
[3] = Binding affinity to wild type Angiococcus disciformis PKS/NRPS R20A mutant expressed in Escherichia coli BL21 (DE3) by surface plasmon resonance assay
[4] = Binding affinity to wild type Angiococcus disciformis PKS/NRPS R27A mutant expressed in Escherichia coli BL21 (DE3) by surface plasmon resonance assay
[5] = Binding affinity to wild type Angiococcus disciformis PKS/NRPS R29A mutant expressed in Escherichia coli BL21 (DE3) by surface plasmon resonance assay
[6] = Binding affinity to wild type Angiococcus disciformis PKS/NRPS R20A/R27A mutant expressed in Escherichia coli BL21 (DE3) by surface plasmon resonance assay
[7] = Binding affinity to wild type Angiococcus disciformis PKS/NRPS R20A/R29A mutant expressed in Escherichia coli BL21 (DE3) by surface plasmon resonance assay
[8] = Binding affinity to wild type Angiococcus disciformis PKS/NRPS R27A/R29A mutant expressed in Escherichia coli BL21 (DE3) by surface plasmon resonance assay

**Q.** What does the source list for `CCCC(=O)OCN(C(=O)[C@@H](NC(=O)[C@H]1CCCCN1C)[C@@H](C)CC)[C@H](C[C@@H](OC(C)=O)c1nc(C(=O)N[C@@H](Cc2ccc(O)cc2)C[C@H](C)C(=O)O)cs1)C(C)C` [TUBULYSIN B]?
**A.** Kd [1]: 47 µM; Kd [2]: 46 µM; Kd [3]: 59 µM; Kd [4]: 121 µM; Kd [5]: 453 µM; Kd [6]: 114 µM; Kd [7]: 596 µM; Kd [8]: 282 µM
